Where only a bound is given, the exact number is not on record here.

For the assay, the target named is Huntingtin (Homo sapiens, UniProt P42858). The experiment in a line: Inhibition of Huntingtin protein (unknown origin) incubated for overnight in presence of MW1/MAB2166 monoclonal antibody by ELISA-based MSD electrochemiluminescence assay. For orientation: In an ELISA, binding on a coated surface is turned into a signal by an enzyme label.
Chain of Huntingtin (P42858 whole entry): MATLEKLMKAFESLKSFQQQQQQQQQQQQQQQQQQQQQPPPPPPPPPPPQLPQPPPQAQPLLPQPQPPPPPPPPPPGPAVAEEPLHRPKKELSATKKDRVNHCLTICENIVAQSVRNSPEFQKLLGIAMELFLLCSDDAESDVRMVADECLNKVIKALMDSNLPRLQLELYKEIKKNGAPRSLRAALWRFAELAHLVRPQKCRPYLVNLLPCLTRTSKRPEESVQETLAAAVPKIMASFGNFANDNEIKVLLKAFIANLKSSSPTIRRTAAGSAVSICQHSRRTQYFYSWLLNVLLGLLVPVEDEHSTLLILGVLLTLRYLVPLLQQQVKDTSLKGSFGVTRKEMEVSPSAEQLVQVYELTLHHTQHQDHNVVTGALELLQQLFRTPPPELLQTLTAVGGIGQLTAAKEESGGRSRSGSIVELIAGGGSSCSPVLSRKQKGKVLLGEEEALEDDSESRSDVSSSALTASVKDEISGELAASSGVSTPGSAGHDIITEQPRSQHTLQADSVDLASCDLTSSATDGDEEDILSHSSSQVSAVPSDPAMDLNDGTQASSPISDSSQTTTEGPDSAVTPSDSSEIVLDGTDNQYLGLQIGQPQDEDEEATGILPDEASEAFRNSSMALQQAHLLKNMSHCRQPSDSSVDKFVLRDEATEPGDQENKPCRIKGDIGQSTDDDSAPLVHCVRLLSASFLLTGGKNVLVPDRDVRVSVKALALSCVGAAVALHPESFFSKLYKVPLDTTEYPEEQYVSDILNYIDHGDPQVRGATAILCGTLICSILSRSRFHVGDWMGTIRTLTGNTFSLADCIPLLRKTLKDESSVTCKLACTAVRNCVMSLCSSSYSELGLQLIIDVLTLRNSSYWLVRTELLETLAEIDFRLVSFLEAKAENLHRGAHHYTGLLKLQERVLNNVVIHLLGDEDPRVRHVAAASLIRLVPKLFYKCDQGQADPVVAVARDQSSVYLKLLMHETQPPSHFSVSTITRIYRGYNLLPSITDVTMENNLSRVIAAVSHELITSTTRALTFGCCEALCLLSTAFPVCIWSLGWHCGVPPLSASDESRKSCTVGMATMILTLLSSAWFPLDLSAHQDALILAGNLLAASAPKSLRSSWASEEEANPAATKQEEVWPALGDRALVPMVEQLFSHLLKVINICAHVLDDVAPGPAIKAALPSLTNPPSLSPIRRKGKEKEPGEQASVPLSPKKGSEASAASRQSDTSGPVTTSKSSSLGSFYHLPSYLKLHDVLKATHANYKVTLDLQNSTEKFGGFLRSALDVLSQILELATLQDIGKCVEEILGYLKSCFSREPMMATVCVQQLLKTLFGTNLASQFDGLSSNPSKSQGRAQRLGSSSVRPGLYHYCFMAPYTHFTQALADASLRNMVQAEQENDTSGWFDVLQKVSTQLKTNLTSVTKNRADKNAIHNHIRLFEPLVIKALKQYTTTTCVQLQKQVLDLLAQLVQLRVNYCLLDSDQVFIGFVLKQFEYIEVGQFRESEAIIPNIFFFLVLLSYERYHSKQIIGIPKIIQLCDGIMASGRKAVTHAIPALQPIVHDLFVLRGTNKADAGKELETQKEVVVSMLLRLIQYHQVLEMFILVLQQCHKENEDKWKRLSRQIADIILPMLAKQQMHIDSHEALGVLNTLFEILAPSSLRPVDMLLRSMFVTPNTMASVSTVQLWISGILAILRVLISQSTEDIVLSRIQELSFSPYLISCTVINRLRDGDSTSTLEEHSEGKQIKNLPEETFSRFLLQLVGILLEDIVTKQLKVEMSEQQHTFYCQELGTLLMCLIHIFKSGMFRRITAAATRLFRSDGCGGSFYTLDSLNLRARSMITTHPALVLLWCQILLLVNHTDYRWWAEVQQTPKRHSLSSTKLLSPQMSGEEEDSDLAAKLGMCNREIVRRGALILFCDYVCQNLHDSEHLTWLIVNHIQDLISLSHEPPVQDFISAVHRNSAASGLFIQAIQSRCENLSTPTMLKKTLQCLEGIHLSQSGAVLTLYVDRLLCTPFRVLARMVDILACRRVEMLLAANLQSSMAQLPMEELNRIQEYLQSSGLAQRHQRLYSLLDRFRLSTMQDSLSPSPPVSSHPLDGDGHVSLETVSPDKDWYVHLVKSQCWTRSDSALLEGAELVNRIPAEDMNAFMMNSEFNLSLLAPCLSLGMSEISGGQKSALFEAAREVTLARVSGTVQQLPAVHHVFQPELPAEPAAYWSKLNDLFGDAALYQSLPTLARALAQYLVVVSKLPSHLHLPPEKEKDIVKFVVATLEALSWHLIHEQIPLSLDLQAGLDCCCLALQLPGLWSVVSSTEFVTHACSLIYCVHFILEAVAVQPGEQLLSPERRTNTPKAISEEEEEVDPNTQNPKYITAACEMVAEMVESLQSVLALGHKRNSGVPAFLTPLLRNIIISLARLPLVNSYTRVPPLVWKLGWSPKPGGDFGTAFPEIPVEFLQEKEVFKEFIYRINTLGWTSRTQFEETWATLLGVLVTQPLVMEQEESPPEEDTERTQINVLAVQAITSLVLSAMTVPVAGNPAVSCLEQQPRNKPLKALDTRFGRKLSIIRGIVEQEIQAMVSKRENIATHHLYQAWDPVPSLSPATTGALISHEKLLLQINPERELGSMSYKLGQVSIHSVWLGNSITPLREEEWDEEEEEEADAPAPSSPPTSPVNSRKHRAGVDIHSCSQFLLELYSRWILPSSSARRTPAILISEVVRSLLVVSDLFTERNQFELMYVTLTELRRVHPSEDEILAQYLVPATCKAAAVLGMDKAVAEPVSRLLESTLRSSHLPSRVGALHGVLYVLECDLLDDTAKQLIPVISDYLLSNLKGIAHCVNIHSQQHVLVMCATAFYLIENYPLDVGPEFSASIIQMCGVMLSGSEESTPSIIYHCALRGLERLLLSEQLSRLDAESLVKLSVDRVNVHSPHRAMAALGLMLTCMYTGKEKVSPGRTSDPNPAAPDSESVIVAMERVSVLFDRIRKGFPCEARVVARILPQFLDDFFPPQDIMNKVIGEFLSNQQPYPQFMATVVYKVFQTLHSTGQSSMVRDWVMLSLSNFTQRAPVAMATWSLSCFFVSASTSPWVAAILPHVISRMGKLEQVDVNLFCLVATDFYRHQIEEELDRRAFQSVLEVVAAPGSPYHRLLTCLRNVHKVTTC
As usually defined, the IC50 is the concentration needed to halve the response being measured. Regarding `Cc1nc2ccc(-c3cc(F)c4nc(C5CCNCC5)sc4c3)cc2o1`, the IC50 is at most 100 nM.

Regarding `CN(c1nc2nnc(-c3ccc(-c4cn[nH]c4)cc3O)cc2s1)C1CCN(C2CC2)CC1`, the IC50 was at most 100 nM.

Take `Oc1cc(-c2cn[nH]c2)ccc1-c1cc2sc(N3CCC34CCNCC4)nc2nn1`: the IC50 was at most 100 nM.

Regarding `CN1CC2(C1)CN(c1nc3nnc(-c4ccc(-c5c[nH]nc5F)cc4O)cc3s1)C2`, the IC50 is at most 100 nM.

As for `Cc1cn2nc(-c3cc(F)c4nc(OC5CCN(C)CC5)sc4c3)cc(C)c2n1`, the IC50 is at most 100 nM.

Consider `CN(c1nc2nnc(-c3ccc(-c4c[nH]nc4F)cc3O)cc2s1)C1CCNC1` (stereo unspecified), for which the IC50 was at most 100 nM.

Source of the values: ChEMBL document CHEMBL4706724, “Novel Substituted Benzothiazole Compounds for Treating Huntington's Disease” (ACS Med Chem Lett, 2021).
